Assay results: ChEMBL document CHEMBL4033614, “Antineoplastic Agents. 603. Quinstatins: Exceptional Cancer Cell Growth Inhibitors” (2017)
Square brackets hold non-standard residues; d marks the D form. Peptide text beside a SMILES is read from it. * marks the point of attachment. Dolaproine = CO[C@@H]([C@@H]1CCCN1)[C@@H](C)C(=O)O; Dil = CC[C@H](C)[C@H](NC)[C@@H](CC(=O)O)OC; X1 = C[C@@H](N*)[C@@H](O)c1ccccc1; NMeV = CN[C@H](C(=O)O)C(C)C

Columns and labels:
BXPC-3 [1] = test: Growth inhibition of human BxPC3 cells incubated for 48 hrs by MTT assay; assay type: functional; settings: BXPC-3, 48 h
MCF7 = test: Growth inhibition of human MCF7 cells incubated for 48 hrs by sulforhodamine B assay; settings: MCF7, 48 h
SF-268 = test: Growth inhibition of human SF268 cells incubated for 48 hrs by sulforhodamine B assay; settings: SF-268, 48 h
DU-145 = test: Growth inhibition of human DU145 cells incubated for 48 hrs by sulforhodamine B assay; settings: DU-145, 48 h
KM-20L2 = test: Growth inhibition of human KM20L2 cells incubated for 48 hrs by sulforhodamine B assay; settings: KM-20L2, 48 h
NCI-H460 = test: Growth inhibition of human NCI-H460 cells incubated for 48 hrs by sulforhodamine B assay; settings: NCI-H460, 48 h
BXPC-3 [2] = test: Growth inhibition of human BxPC3 cells incubated for 48 hrs by sulforhodamine B assay; settings: BXPC-3, 48 h

Row | GI50 (BXPC-3 [1]) [nM] | GI50 (MCF7) [nM] | GI50 (DU-145) [nM] | GI50 (NCI-H460) [nM] | GI50 (BXPC-3 [2]) [nM] | SMILES | GI50 (SF-268) [nM] | GI50 (KM-20L2) [nM]
1 | 2.66 | 0.532 | 0.399 | 5.71 | – | CC[C@H](C)[C@@H]([C@@H](CC(=O)N1CCC[C@H]1[C@H](OC)[C@@H](C)C(=O)NCCc1ccc2ncccc2c1)OC)N(C)C(=O)[C@@H](NC(=O)[C@H](C(C)C)N(C)C)C(C)C | 0.399 | 0.518
2 | 27.9 | 0.305 | 0.266 | 41.2 | – | CC[C@H](C)[C@@H]([C@@H](CC(=O)N1CCC[C@H]1[C@H](OC)[C@@H](C)C(=O)NCCc1cnc2ccccc2c1)OC)N(C)C(=O)[C@@H](NC(=O)[C@H](C(C)C)N(C)C)C(C)C | 0.385 | 0.532
3 | 2.79 | 0.097 | 0.172 | 6.37 | – | CC[C@H](C)[C@@H]([C@@H](CC(=O)N1CCC[C@H]1[C@H](OC)[C@@H](C)C(=O)NCCc1cccc2ncccc12)OC)N(C)C(=O)[C@@H](NC(=O)[C@H](C(C)C)N(C)C)C(C)C | 0.146 | 0.305
4 | 4.12 | 0.039 | 0.04 | 14.6 | – | CC[C@H](C)[C@@H]([C@@H](CC(=O)N1CCC[C@H]1[C@H](OC)[C@@H](C)C(=O)NCCc1ccc2cccnc2c1)OC)N(C)C(=O)[C@@H](NC(=O)[C@H](C(C)C)N(C)C)C(C)C | 0.032 | 0.054
5 | 12.4 | 0.412 | 0.412 | 6.77 | – | CC[C@H](C)[C@@H]([C@@H](CC(=O)N1CCC[C@H]1[C@H](OC)[C@@H](C)C(=O)NCCc1ccc2ccccc2n1)OC)N(C)C(=O)[C@@H](NC(=O)[C@H](C(C)C)N(C)C)C(C)C | 0.31 | 0.438
6 | – | 0.053 | 0.053 | 1.19 | 0.425 | CC[C@H](C)[C@@H]([C@@H](CC(=O)N1CCC[C@H]1[C@H](OC)[C@@H](C)C(=O)NCCc1cccc2cccnc12)OC)N(C)C(=O)[C@@H](NC(=O)[C@H](C(C)C)N(C)C)C(C)C | 0.03 | 0.053
7 | 5.84 | 0.398 | 0.305 | 5.71 | – | CC[C@H](C)[C@@H]([C@@H](CC(=O)N1CCC[C@H]1[C@H](OC)[C@@H](C)C(=O)NCCc1ccnc2ccccc12)OC)N(C)C(=O)[C@@H](NC(=O)[C@H](C(C)C)N(C)C)C(C)C | 0.252 | 0.425

Row | SMILES | GI50 (BXPC-3 [1]) [nM] | GI50 (MCF7) [nM] | GI50 (DU-145) [nM] | GI50 (NCI-H460) [nM] | GI50 (BXPC-3 [2]) [nM] | GI50 (SF-268) [nM] | GI50 (KM-20L2) [nM]
8 | CC[C@H](C)[C@@H]([C@@H](CC(=O)N1CCC[C@H]1[C@H](OC)[C@@H](C)C(=O)N[C@H](C)[C@@H](O)c1ccccc1)OC)N(C)C(=O)[C@@H](NC(=O)[C@H](C(C)C)N(C)C)C(C)C | > 1.37 | 0.232 | 0.424 | 0.533 | – | 0.492 | 0.492
9 | CC[C@H](C)[C@@H]([C@@H](CC(=O)N1CCC[C@H]1[C@H](OC)[C@@H](C)C(=O)N[C@H](C)[C@@H](O)c1ccccc1)OC)N(C)C(=O)[C@@H](NC(=O)[C@@H](NC)C(C)C)C(C)C (H-[NMeV]V[Dil][Dolaproine]-X1) | > 1.39 | 0.404 | 0.418 | 0.683 | – | 0.432 | 0.599
